System: 282377-053-R-J1-PDC complex spheroid viability
Experiment: Anticancer human tumor 282377-053-R-J1-PDC patient-derived colon adenocarcinoma cell line growth inhibition [POLQ]
Conditions: for IC50: curve of first compound; for viability, T/C: stronger effect = lower value
Experimental: Multicellular complex tumor spheroid response to Polymerase (POL) inhibitors (novobiocin, ART-558, RP6685) in combination with a variety of drugs and investigational agents in selected tumor cell lines
The POL inhibitors (novobiocin, ART-558, and RP6685) were evaluated both individually and in combination with standard of care and investigational anticancer small molecules within a complex spheroid model of solid tumors. . Complex spheroids include a stromal component modeled by human endothelial cells (HUVEC) and fibroblasts modeled by human mesenchymal stem cells (MSCs). The concentration ranges selected for each drug and investigational agent were based upon clinically achievable concentrations if the clinical Cmax of the agent was known.
Compounds. The drugs and investigational agents: novobiocin (NSC847541), ART-558 (NSC835418), RP-6685 (NSC848927), peposertib (NSC802822), ceralasertib (NSC780249), elimusertib (NSC800525), camonsertib (NSC841442), AZD-1390 (NSC803789), olaparib (NSC753686), talazoparib (NSC767125), rucaparib (NSC756644), sotorasib (NSC818433), MRTX-1133 (NSC836407), SN-38 (NSC673596), topotecan (NSC609699), epotoside (NSC141540), doxorubicin (NSC123127), gemcitabine (NSC613327), 5-fluorouracil (NSC19893), paclitaxel (NSC125973), vemurafenib (NSC761431), MSA-2 (NSC828583), SN-011 (NSC837082), adavosertib (NSC754352), prexasertib (NSC758257), carboplatin (NSC241240) and oxaliplatin (NSC266046), were obtained from the National Cancer Institute (NCI) Developmental Therapeutics Program Chemical Repository (21). The FDA-approved anticancer drug set is available from the Developmental Therapeutics Program at https://dtp.cancer.gov/organization/dscb/obtaining/. […] The stock solutions were prepared in dimethyl sulfoxide (DMSO, Sigma-Aldrich, St. Louis, MO, cat. D2650), except for the platinum compounds which were prepared in saline (Quality Biological, Gaithersburg, MD, cat. 114-055-101), at 800-fold the tested concentration and stored at -70 degrees C prior to their use. All drugs and investigational agents were tested over a range starting from a high concentration at or near the clinical Cmax and decreasing in half-log increments. If the clinical Cmax for an agent had not been determined, the highest concentration tested was 10 microM, except for SN-38, which was tested at a high concentration of 1 microM.
Cell Culture. All cells were maintained in an incubator at 37 degrees C and 5% CO2 with 95% humidity. The PDC lines were cultured according to standard operating procedures established by the NCI PDMR (https://pdmr.cancer.gov). Table 3 of the manuscript, lists the cell lines along with the number of the three cell types plated to form the mct-spheroids and media for tumor cell growth. After thawing, all PDC lines, except 997537-175-T-J1-PDC and 415267-285-R-J2-PDC, were cultured in Matrigel-coated flasks prepared with a working solution of 1X Ham's F-12 nutrient mix, without supplementation (Thermo Fisher Scientific, cat. 11765054), 100 U/mL penicillin-streptomycin (Thermo Fisher Scientific, cat. 15140122), and 2.5% Matrigel (Corning Inc., Corning, NY, cat. 354248) for the first three passages. The two PDC lines 997537-175-T-J1-PDC and 415267-285-R-J2-PDC were cultured on uncoated flasks. The 857933-349-R-J2-PDC line was cultured in 6C/Colon 1B media containing advanced DMEM/F-12 (Thermo Fisher Scientific, cat. 12634028), 10 mM HEPES (Thermo Fisher Scientific, cat. 15630080), 1X GlutaMAX supplement (Thermo Fisher Scientific, cat. 35050061), 0.1 mg/mL primocin (InvivoGen, San Diego, CA, cat. ant-pm-2), 10% defined fetal bovine serum, heat inactivated (HyClone Laboratories Inc., Logan, UT, cat. SH30070.03HI), 50% L-WRN conditioned media (ATCC, cat. CRL-3276), 1.25 mM N-Acetyl-L-cysteine (Sigma-Aldrich, cat. A9165), 10 mM nicotinamide (Sigma-Aldrich, cat. N0636), 1X B-27 supplement (Thermo Fisher Scientific, cat. 17504044), 1X N-2 supplement (Thermo Fisher Scientific, cat. […]

[1] = second compound 0.0316 µM, first compound 0.0316 µM
[2] = second compound 0.0316 µM, first compound 0.1 µM
[3] = second compound 0.0316 µM, first compound 0.316 µM
[4] = second compound 0.0316 µM, first compound 1 µM
[5] = second compound 0.1 µM, first compound 0.0316 µM
[6] = second compound 0.1 µM, first compound 0.1 µM
[7] = second compound 0.1 µM, first compound 0.316 µM
[8] = second compound 0.1 µM, first compound 1 µM
[9] = second compound 0.316 µM, first compound 0.0316 µM
[10] = second compound 0.316 µM, first compound 0.1 µM
[11] = second compound 0.316 µM, first compound 0.316 µM
[12] = second compound 0.316 µM, first compound 1 µM
[13] = second compound 1 µM, first compound 0.0316 µM
[14] = second compound 1 µM, first compound 0.1 µM
[15] = second compound 1 µM, first compound 0.316 µM
[16] = second compound 1 µM, first compound 1 µM
[17] = second compound 3.16 µM, first compound 0.0316 µM
[18] = second compound 3.16 µM, first compound 0.1 µM
[19] = second compound 3.16 µM, first compound 0.316 µM
[20] = second compound 3.16 µM, first compound 1 µM
[21] = second compound 10 µM, first compound 0.0316 µM
[22] = second compound 10 µM, first compound 0.1 µM
[23] = second compound 10 µM, first compound 0.316 µM
[24] = second compound 10 µM, first compound 1 µM
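Note: spheroids exposed to compounds for seven days.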
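Throughout, for viability, T/C: 100% = DMSO vehicle control viability.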

SMILES: C=CCn1c(=O)c2cnc(Nc3ccc(N4CCN(C)CC4)cc3)nc2n1-c1cccc(C(C)(C)O)n1 + Cc1cccc(N(C)C(=O)C2C(O)CCN2c2nc(C)cc(C(F)(F)F)c2C#N)c1
- IC50 (second compound 0.0316 µM): > 1 µM
- IC50 (second compound 0.1 µM): > 1 µM
- IC50 (second compound 0.316 µM): > 1 µM
- IC50 (second compound 1 µM): > 1 µM
- IC50 (second compound 3.16 µM): > 1 µM
- IC50 (second compound 10 µM): > 1 µM
- viability, T/C (second compound 0.0316 µM, first compound 0.00316 µM): 106%
- viability, T/C (second compound 0.0316 µM, first compound 0.01 µM): 107%
- viability, T/C [1]: 107%
- viability, T/C [2]: 96.9%
- viability, T/C [3]: 93.6%
- viability, T/C [4]: 76.6%
- viability, T/C (second compound 0.1 µM, first compound 0.00316 µM): 95.6%
- viability, T/C (second compound 0.1 µM, first compound 0.01 µM): 110%
- viability, T/C [5]: 94.3%
- viability, T/C [6]: 102%
- viability, T/C [7]: 92.2%
- viability, T/C [8]: 68.4%
- viability, T/C (second compound 0.316 µM, first compound 0.00316 µM): 107%
- viability, T/C (second compound 0.316 µM, first compound 0.01 µM): 103%
- viability, T/C [9]: 96.8%
- viability, T/C [10]: 91.1%
- viability, T/C [11]: 90.6%
- viability, T/C [12]: 71.8%
- viability, T/C (second compound 1 µM, first compound 0.00316 µM): 109%
- viability, T/C (second compound 1 µM, first compound 0.01 µM): 97%
- viability, T/C [13]: 94.8%
- viability, T/C [14]: 89.1%
- viability, T/C [15]: 89.2%
- viability, T/C [16]: 73%
- viability, T/C (second compound 3.16 µM, first compound 0.00316 µM): 104%
- viability, T/C (second compound 3.16 µM, first compound 0.01 µM): 102%
- viability, T/C [17]: 102%
- viability, T/C [18]: 93.2%
- viability, T/C [19]: 98.3%
- viability, T/C [20]: 70.2%
- viability, T/C (second compound 10 µM, first compound 0.00316 µM): 99.9%
- viability, T/C (second compound 10 µM, first compound 0.01 µM): 103%
- viability, T/C [21]: 93.7%
- viability, T/C [22]: 98.9%
- viability, T/C [23]: 94.3%
- viability, T/C [24]: 85.4%

SMILES: CC(=O)O[C@H]1C(=O)[C@@]2(C)[C@H]([C@H](OC(=O)c3ccccc3)[C@]3(O)C[C@H](OC(=O)[C@H](O)[C@@H](NC(=O)c4ccccc4)c4ccccc4)C(C)=C1C3(C)C)[C@]1(OC(C)=O)CO[C@@H]1C[C@@H]2O + Cc1cccc(N(C)C(=O)C2C(O)CCN2c2nc(C)cc(C(F)(F)F)c2C#N)c1
- IC50 (second compound 0.0316 µM): 0.0278 µM
- IC50 (second compound 0.1 µM): 0.028 µM
- IC50 (second compound 0.316 µM): 0.026 µM
- IC50 (second compound 1 µM): 0.0276 µM
- IC50 (second compound 3.16 µM): 0.0281 µM
- IC50 (second compound 10 µM): 0.0269 µM
- viability, T/C (second compound 0.0316 µM, first compound 0.00949 µM): 103%
- viability, T/C (second compound 0.0316 µM, first compound 0.03 µM): 44.3%
- viability, T/C (second compound 0.0316 µM, first compound 0.0949 µM): 40.6%
- viability, T/C (second compound 0.0316 µM, first compound 0.3 µM): 43%
- viability, T/C (second compound 0.0316 µM, first compound 0.949 µM): 45.6%
- viability, T/C (second compound 0.0316 µM, first compound 3 µM): 57.6%
- viability, T/C (second compound 0.1 µM, first compound 0.00949 µM): 90.3%
- viability, T/C (second compound 0.1 µM, first compound 0.03 µM): 47.5%
- viability, T/C (second compound 0.1 µM, first compound 0.0949 µM): 43.4%
- viability, T/C (second compound 0.1 µM, first compound 0.3 µM): 40.9%
- viability, T/C (second compound 0.1 µM, first compound 0.949 µM): 44.8%
- viability, T/C (second compound 0.1 µM, first compound 3 µM): 53%
- viability, T/C (second compound 0.316 µM, first compound 0.00949 µM): 98.8%
- viability, T/C (second compound 0.316 µM, first compound 0.03 µM): 42.5%
- viability, T/C (second compound 0.316 µM, first compound 0.0949 µM): 38.5%
- viability, T/C (second compound 0.316 µM, first compound 0.3 µM): 37.5%
- viability, T/C (second compound 0.316 µM, first compound 0.949 µM): 45.4%
- viability, T/C (second compound 0.316 µM, first compound 3 µM): 51.4%
- viability, T/C (second compound 1 µM, first compound 0.00949 µM): 92.3%
- viability, T/C (second compound 1 µM, first compound 0.03 µM): 44.9%
- viability, T/C (second compound 1 µM, first compound 0.0949 µM): 37.2%
- viability, T/C (second compound 1 µM, first compound 0.3 µM): 45.6%
- viability, T/C (second compound 1 µM, first compound 0.949 µM): 48.8%
- viability, T/C (second compound 1 µM, first compound 3 µM): 56.7%
- viability, T/C (second compound 3.16 µM, first compound 0.00949 µM): 99.5%
- viability, T/C (second compound 3.16 µM, first compound 0.03 µM): 47.2%
- viability, T/C (second compound 3.16 µM, first compound 0.0949 µM): 39.5%
- viability, T/C (second compound 3.16 µM, first compound 0.3 µM): 44.5%
- viability, T/C (second compound 3.16 µM, first compound 0.949 µM): 45.2%
- viability, T/C (second compound 3.16 µM, first compound 3 µM): 54.2%
- viability, T/C (second compound 10 µM, first compound 0.00949 µM): 95%
- viability, T/C (second compound 10 µM, first compound 0.03 µM): 43.1%
- viability, T/C (second compound 10 µM, first compound 0.0949 µM): 37.8%
- viability, T/C (second compound 10 µM, first compound 0.3 µM): 40.7%
- viability, T/C (second compound 10 µM, first compound 0.949 µM): 46.4%
- viability, T/C (second compound 10 µM, first compound 3 µM): 58.1%

SMILES: O=c1[nH]cc(F)c(=O)[nH]1 + Cc1cccc(N(C)C(=O)C2C(O)CCN2c2nc(C)cc(C(F)(F)F)c2C#N)c1
- IC50 (second compound 0.0316 µM): > 10 µM
- IC50 (second compound 0.1 µM): > 10 µM
- IC50 (second compound 0.316 µM): > 10 µM
- IC50 (second compound 1 µM): > 10 µM
- IC50 (second compound 3.16 µM): > 10 µM
- IC50 (second compound 10 µM): > 10 µM
- viability, T/C [1]: 111%
- viability, T/C [2]: 104%
- viability, T/C [3]: 89.8%
- viability, T/C [4]: 78.8%
- viability, T/C (second compound 0.0316 µM, first compound 3.16 µM): 70.3%
- viability, T/C (second compound 0.0316 µM, first compound 10 µM): 68.5%
- viability, T/C [5]: 102%
- viability, T/C [6]: 111%
- viability, T/C [7]: 128%
- viability, T/C [8]: 86%
- viability, T/C (second compound 0.1 µM, first compound 3.16 µM): 76.7%
- viability, T/C (second compound 0.1 µM, first compound 10 µM): 70.4%
- viability, T/C [9]: 117%
- viability, T/C [10]: 88.7%
- viability, T/C [11]: 116%
- viability, T/C [12]: 74.9%
- viability, T/C (second compound 0.316 µM, first compound 3.16 µM): 80.3%
- viability, T/C (second compound 0.316 µM, first compound 10 µM): 67.9%
- viability, T/C [13]: 107%
- viability, T/C [14]: 85.5%
- viability, T/C [15]: 105%
- viability, T/C [16]: 104%
- viability, T/C (second compound 1 µM, first compound 3.16 µM): 82.7%
- viability, T/C (second compound 1 µM, first compound 10 µM): 63.1%
- viability, T/C [17]: 99.1%
- viability, T/C [18]: 104%
- viability, T/C [19]: 80.6%
- viability, T/C [20]: 88.6%
- viability, T/C (second compound 3.16 µM, first compound 3.16 µM): 80.1%
- viability, T/C (second compound 3.16 µM, first compound 10 µM): 68.7%
- viability, T/C [21]: 113%
- viability, T/C [22]: 109%
- viability, T/C [23]: 107%
- viability, T/C [24]: 76.4%
- viability, T/C (second compound 10 µM, first compound 3.16 µM): 69.7%
- viability, T/C (second compound 10 µM, first compound 10 µM): 63.8%
